Assays:
Assay type in all cases: functional
Influenza A virus [1] = experiment: Antiviral activity against Influenza A virus (A/Texas/36/1991(H1N1)) infected in BALB/c mouse assessed as median death time at 750 mg/kg, po administered via gavage as single dose at 16 hrs post infection (reference value: 8.5 days)
dengue virus type 2 = experiment: Antiviral activity against Dengue virus 2 S221 infected in DENV antibody dependent enhancement AG129 mouse model assessed as animal survival at 750 mg/kg, po administered via gavage as two doses at 24 and 40 hrs post infection (reference value: 4%)
Influenza A virus [2] = experiment: Antiviral activity against Influenza A virus (A/Texas/36/1991(H1N1)) infected in BALB/c mouse assessed as median death time at 500 mg/kg, po administered via gavage as single dose at 8 hrs post infection
Influenza A virus [3] = experiment: Antiviral activity against Influenza A virus (A/Texas/36/1991(H1N1)) infected in BALB/c mouse assessed as animal survival at 500 mg/kg, po administered via gavage as two doses at 8 and 32 hrs post infection (reference value: 0%)

## COCCCCCCCCCN1C[C@H](O)[C@@H](O)[C@H](O)[C@H]1CO.Cl
Influenza A virus [1]
  Time: >14 days
Dengue virus type 2
  survival at 750 mg/kg: 89%
Influenza A virus [2]
  Time: 12.5 days
Influenza A virus [3]
  survival at 500 mg/kg: 100%
